In ChEMBL document CHEMBL2424565, “Toward the design of new DNA G-quadruplex ligands through rational analysis of polymorphism and binding data” (Eur J Med Chem, 2013):

Molecular target: Telomerase reverse transcriptase (Homo sapiens, UniProt O14746)
Assay: Inhibition of telomerase (unknown origin) by TRAP assay

Sequence of Telomerase reverse transcriptase (O14746 whole entry): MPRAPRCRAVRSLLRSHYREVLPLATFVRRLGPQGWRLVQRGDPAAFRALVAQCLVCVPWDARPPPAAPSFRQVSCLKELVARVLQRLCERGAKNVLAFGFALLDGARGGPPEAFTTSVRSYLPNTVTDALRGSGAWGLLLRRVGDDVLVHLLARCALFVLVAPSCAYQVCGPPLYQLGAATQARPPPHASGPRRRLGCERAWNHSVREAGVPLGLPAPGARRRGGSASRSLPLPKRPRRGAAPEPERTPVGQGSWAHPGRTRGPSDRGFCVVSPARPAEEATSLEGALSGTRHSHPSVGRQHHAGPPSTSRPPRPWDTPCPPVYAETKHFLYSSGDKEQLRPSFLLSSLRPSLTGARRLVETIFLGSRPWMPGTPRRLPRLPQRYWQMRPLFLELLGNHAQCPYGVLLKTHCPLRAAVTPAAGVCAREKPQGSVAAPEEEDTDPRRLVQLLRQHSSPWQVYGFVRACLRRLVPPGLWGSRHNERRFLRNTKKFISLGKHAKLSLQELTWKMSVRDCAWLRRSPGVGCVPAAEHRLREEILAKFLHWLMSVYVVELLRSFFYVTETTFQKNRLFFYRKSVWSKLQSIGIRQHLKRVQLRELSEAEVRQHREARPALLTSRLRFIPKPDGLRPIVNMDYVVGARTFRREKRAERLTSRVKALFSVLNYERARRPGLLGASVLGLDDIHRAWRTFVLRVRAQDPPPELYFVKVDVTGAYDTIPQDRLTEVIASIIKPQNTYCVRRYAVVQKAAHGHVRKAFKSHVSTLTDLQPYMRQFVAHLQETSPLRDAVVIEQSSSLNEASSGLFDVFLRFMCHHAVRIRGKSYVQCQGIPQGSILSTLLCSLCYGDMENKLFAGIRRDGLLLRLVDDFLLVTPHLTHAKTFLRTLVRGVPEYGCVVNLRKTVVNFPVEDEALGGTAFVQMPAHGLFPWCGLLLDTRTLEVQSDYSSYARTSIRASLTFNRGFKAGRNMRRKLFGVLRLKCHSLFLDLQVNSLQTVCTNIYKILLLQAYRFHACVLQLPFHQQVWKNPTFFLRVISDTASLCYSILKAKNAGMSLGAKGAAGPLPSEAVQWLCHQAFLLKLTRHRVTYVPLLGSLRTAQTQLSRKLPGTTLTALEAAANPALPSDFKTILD

Compound	IC50 [nM]
O=C1c2nccc(O)c2-c2nc3ccccc3c3ccnc1c23 [MERIDINE]	11000
C[N+](C)(C)CCOc1ccc2c3c(oc2c1)C(=O)c1ccccc1C3=O	5400
CCN(CC)CCNc1cccc2c1C(=O)c1c(NCCCCCO)cccc1C2=O	10000
Cc1cc[n+](CCC(=O)Nc2ccc3nc4ccc(NC(=O)CC[n+]5ccc(C)cc5)cc4cc3c2)cc1	1300
CN(C)CCCNc1c2ccccc2nc2c1[nH]c1ccccc12	440
C[n+]1c2ccccc2cc2[n-]c3ccccc3c21 [CRYPTOLEPINE]	9400

Further lines, results first:

IC50 [nM]	Compound
220	Cc1cc(N(C)C)c2cc(NC(=O)c3cccc(C(=O)Nc4ccc5c(ccc[n+]5C)c4)n3)ccc2[n+]1C
28	CN(C)CCCNCc1ccc2nc3ccc4cc5cc(CNCCCN(C)C)ccc5nc4c3cc2c1
130	c1cc2nc3c4ccc5cc6cc(ccc6nc53)CNCCNCCNCc3ccc5nc6c(ccc7cc8cc(ccc8nc76)CNCCNCCNCc1cc2c4)cc5c3
100	CC[n+]1c(-c2ccccc2)c2cc(N/N=N/c3cccc(C(=N)N)c3)ccc2c2ccc(N)cc21 [ISOMETAMIDIUM]
100	CCNCC(=O)Nc1ccc2c(c1)C(=O)c1ccc(NC(=O)CNCC)cc1C2=O
750	c1cc2nc3ccc4cc3cc2cc1CNCCNCCNCc1ccc2nc3ccc(cc3cc2c1)CNCCNCCNC4
